Reference: ChEMBL document CHEMBL1152089, “Alkyl ether derivatives of the FK-506 related, immunosuppressive macrolide L-683,742 (C31-O-desmethyl ascomycin)” (Bioorg Med Chem Lett, 1994)

Assays:
[1] = biological target: T1, Peptidyl-prolyl cis-trans isomerase FKBP1A (Homo sapiens, UniProt P62942); assay: Ability to bind the major cystolic receptor FK506 binding protein 12 by using competitive binding assay
Mus musculus = organism: Mus musculus; assay: In vitro immunosuppressive activity against proliferation of antigen stimulated murine splenic T cells; type: functional, organism-based; details: T-cell
[2] = biological target: T1, Peptidyl-prolyl cis-trans isomerase FKBP1A; assay: Ability to bind the major cystolic receptor FKBP12 by using competitive binding assay

T1 sequence (P62942 whole entry): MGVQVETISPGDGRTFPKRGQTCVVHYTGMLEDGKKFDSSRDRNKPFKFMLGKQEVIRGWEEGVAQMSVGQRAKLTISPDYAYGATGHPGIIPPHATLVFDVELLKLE

Compound `CC[C@@H]1/C=C(\C)C[C@H](C)C[C@H](OC)[C@H]2OC(O)(C(=O)C(=O)N3CCCC[C@H]3C(=O)O[C@H](/C(C)=C/[C@@H]3CC[C@@H](O)[C@H](OCc4cccs4)C3)[C@H](C)[C@@H](O)CC1=O)[C@@H](C)C[C@@H]2OC` has an EC50 [1] of 10.3 nM and an IC50 (Mus musculus) of 1.1 nM.
`CC[C@@H]1/C=C(\C)C[C@H](C)C[C@H](OC)[C@H]2O[C@@](O)(C(=O)C(=O)N3CCCC[C@H]3C(=O)O[C@H](/C(C)=C/[C@@H]3CC[C@@H](O)[C@H](O)C3)[C@H](C)[C@@H](O)CC1=O)[C@@H](C)C[C@@H]2OC` showed an EC50 [1] of 5 nM and an IC50 (Mus musculus) of 1.8 nM.
For `C=CC(C)O[C@@H]1C[C@H](/C=C(\C)[C@H]2OC(=O)[C@@H]3CCCCN3C(=O)C(=O)C3(O)O[C@H]([C@@H](OC)C[C@@H](C)C/C(C)=C/[C@@H](CC)C(=O)C[C@H](O)[C@H]2C)[C@@H](OC)C[C@@H]3C)CC[C@H]1O` (some centres not stated), the EC50 [1] was 6.6 nM and the IC50 (Mus musculus) was 0.73 nM.
With `C=CC(C)O[C@@H]1CC[C@@H](/C=C(\C)[C@H]2OC(=O)[C@@H]3CCCCN3C(=O)C(=O)C3(O)O[C@H]([C@@H](OC)C[C@@H](C)C/C(C)=C/[C@@H](CC)C(=O)C[C@H](O)[C@H]2C)[C@@H](OC)C[C@@H]3C)C[C@H]1O` (some centres not stated) the EC50 [1] was 14.9 nM and the IC50 (Mus musculus) was 6.6 nM.
`C=CCO[C@@H]1CC[C@@H](/C=C(\C)[C@H]2OC(=O)[C@@H]3CCCCN3C(=O)C(=O)C3(O)O[C@H]([C@@H](OC)C[C@@H](C)C/C(C)=C/[C@@H](CC)C(=O)C[C@H](O)[C@H]2C)[C@@H](OC)C[C@@H]3C)C[C@H]1O` showed an EC50 [1] of 6.1 nM and an IC50 (Mus musculus) of 5.5 nM.
For `CC[C@@H]1/C=C(\C)C[C@H](C)C[C@H](OC)[C@H]2OC(O)(C(=O)C(=O)N3CCCC[C@H]3C(=O)O[C@H](/C(C)=C/[C@@H]3CC[C@@H](O)[C@H](OC(C)C)C3)[C@H](C)[C@@H](O)CC1=O)[C@@H](C)C[C@@H]2OC`, the IC50 (Mus musculus) was 0.59 nM and the EC50 [2] was 3.4 nM.
Compound `CC[C@@H]1/C=C(\C)C[C@H](C)C[C@H](OC)[C@H]2OC(O)(C(=O)C(=O)N3CCCC[C@H]3C(=O)O[C@H](/C(C)=C/[C@@H]3CC[C@@H](OCc4ccco4)[C@H](O)C3)[C@H](C)[C@@H](O)CC1=O)[C@@H](C)C[C@@H]2OC` has an EC50 [1] of 15.6 nM and an IC50 (Mus musculus) of 7.8 nM.
`CC[C@@H]1/C=C(\C)C[C@H](C)C[C@H](OC)[C@H]2OC(O)(C(=O)C(=O)N3CCCC[C@H]3C(=O)O[C@H](/C(C)=C/[C@@H]3CC[C@@H](O)[C@H](OCc4ccco4)C3)[C@H](C)[C@@H](O)CC1=O)[C@@H](C)C[C@@H]2OC` was tested, and the EC50 [1] was 4.6 nM and the IC50 (Mus musculus) was 3.6 nM.
Work on `C=C(C)CO[C@@H]1CC[C@@H](/C=C(\C)[C@H]2OC(=O)[C@@H]3CCCCN3C(=O)C(=O)C3(O)O[C@H]([C@@H](OC)C[C@@H](C)C/C(C)=C/[C@@H](CC)C(=O)C[C@H](O)[C@H]2C)[C@@H](OC)C[C@@H]3C)C[C@H]1O` yielded an IC50 (Mus musculus) of 3.4 nM.
With `CC[C@@H]1/C=C(\C)C[C@H](C)C[C@H](OC)[C@H]2OC(O)(C(=O)C(=O)N3CCCC[C@H]3C(=O)O[C@H](/C(C)=C/[C@@H]3CC[C@@H](O)[C@H](OCc4ccsc4)C3)[C@H](C)[C@@H](O)CC1=O)[C@@H](C)C[C@@H]2OC` the EC50 [1] was 5.7 nM and the IC50 (Mus musculus) was 3.2 nM.
For `CC[C@@H]1/C=C(\C)C[C@H](C)C[C@H](OC)[C@H]2OC(O)(C(=O)C(=O)N3CCCC[C@H]3C(=O)O[C@H](/C(C)=C/[C@@H]3CC[C@@H](OCc4ccsc4)[C@H](O)C3)[C@H](C)[C@@H](O)CC1=O)[C@@H](C)C[C@@H]2OC`, the EC50 [1] was 12 nM and the IC50 (Mus musculus) was 4.4 nM.
`CC[C@@H]1/C=C(\C)C[C@H](C)C[C@H](OC)[C@H]2OC(O)(C(=O)C(=O)N3CCCC[C@H]3C(=O)O[C@H](/C(C)=C/[C@@H]3CC[C@@H](OCc4cccs4)[C@H](O)C3)[C@H](C)[C@@H](O)CC1=O)[C@@H](C)C[C@@H]2OC` gave an EC50 [1] of 11.8 nM and an IC50 (Mus musculus) of 2.8 nM.
`C/C=C/CO[C@@H]1C[C@H](/C=C(\C)[C@H]2OC(=O)[C@@H]3CCCCN3C(=O)C(=O)C3(O)O[C@H]([C@@H](OC)C[C@@H](C)C/C(C)=C/[C@@H](CC)C(=O)C[C@H](O)[C@H]2C)[C@@H](OC)C[C@@H]3C)CC[C@H]1O` gave an EC50 [1] of 7 nM and an IC50 (Mus musculus) of 2.1 nM.
Work on `C/C=C/CO[C@@H]1CC[C@@H](/C=C(\C)[C@H]2OC(=O)[C@@H]3CCCCN3C(=O)C(=O)C3(O)O[C@H]([C@@H](OC)C[C@@H](C)C/C(C)=C/[C@@H](CC)C(=O)C[C@H](O)[C@H]2C)[C@@H](OC)C[C@@H]3C)C[C@H]1O` yielded an EC50 [1] of 9.2 nM and an IC50 (Mus musculus) of 8.6 nM.
Work on `C=C(C)CO[C@@H]1C[C@H](/C=C(\C)[C@H]2OC(=O)[C@@H]3CCCCN3C(=O)C(=O)C3(O)O[C@H]([C@@H](OC)C[C@@H](C)C/C(C)=C/[C@@H](CC)C(=O)C[C@H](O)[C@H]2C)[C@@H](OC)C[C@@H]3C)CC[C@H]1O` yielded an IC50 (Mus musculus) of 1.9 nM.
In the case of `C=CC[C@@H]1/C=C(\C)C[C@H](C)C[C@H](OC)[C@H]2O[C@@](O)(C(=O)C(=O)N3CCCC[C@H]3C(=O)O[C@H](/C(C)=C/[C@@H]3CC[C@@H](O)[C@H](OC)C3)[C@H](C)[C@@H](O)CC1=O)C(C)C[C@@H]2OC` (single isomer, unassigned) [TACROLIMUS ANHYDROUS], the IC50 (Mus musculus) is reported as 0.29 nM.
With `CC[C@@H]1/C=C(\C)C[C@H](C)C[C@H](OC)[C@H]2OC(O)(C(=O)C(=O)N3CCCC[C@H]3C(=O)O[C@H](/C(C)=C/[C@@H]3CC[C@@H](OC(C)C)[C@H](O)C3)[C@H](C)[C@@H](O)CC1=O)[C@@H](C)C[C@@H]2OC` the IC50 (Mus musculus) was 9.1 nM.
`C=CCO[C@@H]1C[C@H](/C=C(\C)[C@H]2OC(=O)[C@@H]3CCCCN3C(=O)C(=O)C3(O)O[C@H]([C@@H](OC)C[C@@H](C)C/C(C)=C/[C@@H](CC)C(=O)C[C@H](O)[C@H]2C)[C@@H](OC)C[C@@H]3C)CC[C@H]1O` showed an EC50 [1] of 2.7 nM and an IC50 (Mus musculus) of 0.68 nM.
